From patent US10070645B2, “N-cycloalkyl-N-{[2-(1-substitutedcycloalkyl)phenyl]methylene}-(thio)carboxamide derivatives” (BAYER CROPSCIENCE AKTIENGESELLSCHAFT, priority 2013, dated 2018)

Test: log P by HPLC on a reversed-phase column (C 18), EEC Directive 79/831 Annex V.A8
Format: physicochemical
Conditions: HPLC on reversed-phase column (C 18), 40° C., 0.1% aqueous formic acid and acetonitrile, linear gradient 10% to 90% acetonitrile
Method: In table 1, the log P values were determined in accordance with EEC Directive 79/831 Annex V.A8 by HPLC (High Performance Liquid Chromatography) on a reversed-phase column (C 18), using the method described below:
Temperature: 40° C.; Mobile phases: 0.1% aqueous formic acid and acetonitrile; linear gradient from 10% acetonitrile to 90% acetonitrile.
Calibration was carried out using unbranched alkan-2-ones (comprising 3 to 16 carbon atoms) with known log P values (determination of the log P values by the retention times using linear interpolation between two successive alkanones). lambda-max-values were determined using UV-spectra from 200 nm to 400 nm and the peak values of the chromatographic signals.

logP | Structure (SMILES)
3.83 | Cn1nc(C(F)F)c(C(=O)N(Cc2cc(F)ccc2C2(C(F)(F)F)CC2)C2CC2)c1F [I.165]
3.87 | Cn1nc(C(F)F)c(C(=O)N(Cc2ccccc2C2(C(F)(F)F)CC2)C2CC2)c1Cl [I.162]
4.39 | Cn1nc(C(F)F)c(C(=O)N(Cc2cc(Cl)ccc2C2(C)CC2(Cl)Cl)C2CC2)c1F (racemic) [I.168]
4.67 | Cc1ccc(C2(C)CC2(Cl)Cl)c(CN(C(=O)c2c(C(F)F)nn(C)c2F)C2CC2)c1Cl (racemic) [I.178]
4.30 | Cn1nc(C(F)F)c(C(=O)N(Cc2cc(Cl)ccc2C2(C(F)(F)F)CC2)C2CC2)c1Cl [I.164]
4.81 | Cn1nc(C(F)F)c(C(=O)N(Cc2c(C3(C)CC3(Cl)Cl)ccc(Cl)c2Cl)C2CC2)c1Cl (racemic) [I.174]
4.71 | Cn1nc(C(F)F)c(C(=O)N(Cc2c(C3(C)CC3(Cl)Cl)ccc(Cl)c2Cl)C2CC2)c1F (racemic) [I.173]

Same assay, conditions: HPLC, reversed-phase column (C 18), 40° C., 0.1% aqueous formic acid and acetonitrile, linear gradient 10% to 90% acetonitrile

logP | Structure (SMILES)
3.94 | Cn1nc(C(F)F)c(C(=O)N(Cc2cc(C3CC3)ccc2C2(C(F)F)CC2)C2CC2)c1F [I.150]
4.59 | Cc1ccc(C2(C3CC3)CC2)c(CN(C(=O)c2c(C(F)F)nn(C)c2F)C2CC2)c1 [I.134]
4.98 | Cc1ccc(C2(C)CC2)c(CN(C(=S)c2c(C(F)F)nn(C)c2Cl)C2CC2)c1 [I.074]
4.49 | Cn1nc(C(F)F)c(C(=S)N(Cc2cccc(F)c2C2(C)CC2)C2CC2)c1F [I.010]
3.33 | COc1cc(CN(C(=O)c2c(C(F)F)nn(C)c2F)C2CC2)c(C2(C)CC2)cc1OC [I.053]
5.14 | CCCC1(c2cc(Cl)ccc2CN(C(=O)c2c(C(F)F)nn(C)c2F)C2CC2)CC1 [I.128]
4.34 | Cn1nc(C(F)F)c(C(=O)N(Cc2cc(C(F)(F)F)ccc2C2(C)CC2)C2CC2)c1F [I.059]
3.92 | Cn1nc(C(F)F)c(C(=O)N(Cc2ccc(F)cc2C2(C)CC2)C2CC2)c1F [I.021]
4.36 | Cn1nc(C(F)F)c(C(=O)N(Cc2cc(Br)ccc2C2(C)CC2)C2CC2)c1F [I.058]
4.67 | CCC1(c2cc(Cl)ccc2CN(C(=O)c2c(C(F)F)nn(C)c2F)C2CC2)CC1 [I.102]
4.77 | CCC1(c2ccc(Cl)cc2CN(C(=O)c2c(C(F)F)nn(C)c2Cl)C2CC2)CC1 [I.111]
4.85 | CCC1(c2cc(C)c(F)cc2CN(C(=O)c2c(C(F)F)nn(C)c2Cl)C2CC2)CC1 [I.107]
4.23 | Cn1nc(C(F)F)c(C(=O)N(Cc2ccc(-c3ccoc3)cc2C2(C)CC2)C2CC2)c1F [I.039]
4.01 | Cn1nc(C(F)F)c(C(=O)N(Cc2ccccc2C2(C)CC2)C2CC2)c1Cl [I.002]
4.63 | Cc1ccc(C2(C)CC2)c(CN(C(=O)c2c(C(F)F)nn(C)c2Cl)C2(C)CC2)c1 [I.077]
5.03 | Cn1nc(C(F)F)c(C(=S)N(Cc2cc(Cl)ccc2C2(C)CC2)C2CC2)c1Cl [I.063]
4.64 | C=C(C)c1cccc(CN(C(=O)c2c(C(F)F)nn(C)c2F)C2CC2)c1C1(C)CC1 [I.015]
4.64 | Cn1nc(C(F)F)c(C(=S)N(Cc2cccc(F)c2C2(C)CC2)C2CC2)c1Cl [I.011]
4.93 | Cn1nc(C(F)F)c(C(=O)N(Cc2ccc(-c3ccccc3)cc2C2(C)CC2)C2CC2)c1F [I.033]

logP | Structure (SMILES)
4.76 | COC1(c2ccc(C3=CCCC3)cc2CN(C(=O)c2c(C(F)F)nn(C)c2F)C2CC2)CC1 [I.126]
3.92 | Cn1nc(C(F)F)c(C(=O)N(Cc2cc(Br)ccc2C2(C(F)F)CC2)C2CC2)c1Cl [I.147]
4.46 | Cn1nc(C(F)F)c(C(=O)N(Cc2c(C(F)(F)F)cccc2C2(C)CC2Cl)C2CC2)c1F (centres unmarked) [I.141]
4.51 | Cc1ccc(C2(C)CC2)c(CN(C(=O)c2c(C(F)F)nn(C)c2F)C2(C)CC2)c1 [I.075]
3.85 | Cn1nc(C(F)F)c(C(=O)N(Cc2cc(Cl)ccc2C2(C(F)F)CC2)C2CC2)c1Cl [I.148]
4.36 | Cc1ccc(CN(C(=O)c2c(C(F)F)nn(C)c2Cl)C2CC2)c(C2(C)CC2)c1 [I.027]
4.34 | C=Cc1ccc(C2(C)CC2)c(CN(C(=O)c2c(C(F)F)nn(C)c2F)C2CC2)c1 [I.080]
3.76 | Cn1nc(C(F)F)c(C(=O)N(Cc2cc(Br)ccc2C2(C(F)F)CC2)C2CC2)c1F [I.146]
3.89 | Cc1ccc(C2(Cl)CC2)c(CN(C(=O)c2c(C(F)F)nn(C)c2F)C2CC2)c1 [I.132]
4.61 | CCC1(c2ccc(C)cc2CN(C(=O)c2c(C(F)F)nn(C)c2F)C2CC2)CC1 [I.113]
4.19 | CCC1(c2cccc(F)c2CN(C(=O)c2c(C(F)F)nn(C)c2F)C2CC2)CC1 [I.114]
4.51 | COc1ccc(CN(C(=S)c2c(C(F)F)nn(C)c2Cl)C2CC2)c(C2(C)CC2)c1 [I.031]
4.21 | Cc1ccc(C2(C)CC2)c(CN(C(=O)c2c(C(F)F)nn(C)c2F)C2CC2)c1F [I.087]
3.87 | COC1(c2ccc(Cl)cc2CN(C(=O)c2c(C(F)F)nn(C)c2Cl)C2CC2)CC1 [I.119]
4.49 | Cn1nc(C(F)F)c(C(=S)N(Cc2cc(F)ccc2C2(C)CC2)C2CC2)c1F [I.068]
5.00 | Cn1nc(C(F)F)c(C(=O)N(Cc2cc(-c3cn(C)c4ccccc34)ccc2C2(C)CC2)C2CC2)c1F [I.082]
3.53 | Cn1nc(C(F)F)c(C(=O)N(Cc2ccc3c(c2C2(C)CC2)OCO3)C2CC2)c1F [I.016]
4.67 | CCC1(c2ccc(C(F)(F)F)cc2CN(C(=O)c2c(C(F)F)nn(C)c2F)C2CC2)CC1 [I.108]
4.46 | Cn1nc(C(F)F)c(C(=S)N(Cc2ccccc2C2(C)CC2)C2CC2)c1F [I.003]

Same assay, conditions: Table 3 (amines of formula II); HPLC C 18, 40° C., 0.1% aqueous formic acid and acetonitrile

Structure (SMILES) | chromatographic logP
C[Si](C)(C)C#CC1(c2ccc(Cl)cc2CNC2CC2)CC1 [II.18, N-(5-chloro-2-{1-[(trimethylsilyl)ethynyl]cyclopropyl}benzyl)cyclopropanamine] | 2.07

Same assay, conditions: reversed-phase HPLC column (C 18); HPLC, reversed-phase column (C 18), 40° C., 0.1% aqueous formic acid and acetonitrile, linear gradient 10% to 90% acetonitrile

chromatographic logP | Structure (SMILES)
4.26 | Cn1nc(C(F)F)c(C(=O)N(Cc2cc(Cl)ccc2C2(C)CC2)C2CC2)c1F [I.060, N-[5-chloro-2-(1-methylcyclopropyl)benzyl]-N-cyclopropyl-3-(difluoromethyl)-5-fluoro-1-methyl-1H-pyrazole-4-carboxamide]

Same assay, conditions: reversed-phase HPLC column (C 18); Table 3 (amines of formula II); HPLC C 18, 40° C., 0.1% aqueous formic acid and acetonitrile

chromatographic logP | Structure (SMILES)
1.95 | CCC1(c2cc(C(F)(F)F)ccc2CNC2CC2)CC1 [II.24, N-[2-(1-ethylcyclopropyl)-4-(trifluoromethyl)benzyl]cyclopropanamine]
1.82 | CCC1(c2ccc(C(F)(F)F)cc2CNC2CC2)CC1 [II.28, N-[2-(1-ethylcyclopropyl)-5-(trifluoromethyl)benzyl]cyclopropanamine]
2.15 | Cc1ccc(C2(CC(C)C)CC2)c(CNC2CC2)c1 [II.43, N-[2-(1-isobutylcyclopropyl)-5-methylbenzyl]cyclopropanamine]
1.1 | CC1(c2ccccc2CNC2CC2)CC1 [II.01, N-[2-(1-methylcyclopropyl)benzyl]cyclopropanamine]
1.32 | Fc1ccc(C2(C(F)(F)F)CC2)c(CNC2CC2)c1 [II.46, N-{5-fluoro-2-[1-(trifluoromethyl)cyclopropyl]benzyl}cyclopropanamine]
1.43 | Cc1ccc(CNC2CC2)c(C2(C)CC2)c1 [II.05, N-[4-methyl-2-(1-methylcyclopropyl)benzyl]cyclopropanamine]
1.1 | FC(F)C1(c2cccc(Br)c2CNC2CC2)CC1 [II.41, N-{2-bromo-6-[1-(difluoromethyl)cyclopropyl]benzyl}cyclopropanamine]
1.15 | C#CC1(c2ccc(C)cc2CNC2CC2)CC1 [II.17, N-[2-(1-ethynylcyclopropyl)-5-methylbenzyl]cyclopropanamine]
1.26 | COc1cc(CNC2CC2)c(C2(C)CC2)cc1OC [II.08, N-[4,5-dimethoxy-2-(1-methylcyclopropyl)benzyl]cyclopropanamine]
1.52 | CCC1(c2ccccc2CNC2CC2)CC1 [II.23, N-[2-(1-ethylcyclopropyl)benzyl]cyclopropanamine]
1.68 | Cc1cc(CNC2CC2)c(C2(C)CC2)cc1C [II.06, N-[4,5-dimethyl-2-(1-methylcyclopropyl)benzyl]cyclopropanamine]
1.79 | CC1(c2cc(Cl)c(Cl)cc2CNC2CC2)CC1 [II.07, N-[4,5-dichloro-2-(1-methylcyclopropyl)benzyl]cyclopropanamine]
1.66 | CCC1(c2ccc(Cl)cc2CNC2CC2)CC1 [II.29, N-[5-chloro-2-(1-ethylcyclopropyl)benzyl]cyclopropanamine]
1.37 | CC1(c2ccc(F)cc2CNC2CC2)CC1 [II.11, N-[5-fluoro-2-(1-methylcyclopropyl)benzyl]cyclopropanamine]

Same assay, conditions: reversed-phase HPLC column (C 18); Table 4 (aldehydes of formula IV); HPLC C 18, 40° C., 0.1% aqueous formic acid and acetonitrile

chromatographic logP | Structure (SMILES)
3.55 | Cc1ccc(C2(C)CC2)c(C=O)c1 [IV.12, 5-methyl-2-(1-methylcyclopropyl)benzaldehyde]
2.35 | N#CC1(c2ccc(Cl)cc2C=O)CC1 [IV.15, 1-(4-chloro-2-formylphenyl)cyclopropanecarbonitrile]
3.44 | Cc1ccc(C=O)c(C2(C)CC2)c1 [IV.04, 4-methyl-2-(1-methylcyclopropyl)benzaldehyde]

Same assay, conditions: reversed-phase HPLC column (C 18); preparation examples

chromatographic logP | Structure (SMILES)
4.93 | CC1(c2ccc(Cl)cc2Br)CC1 [2-bromo-4-chloro-1-(1-methylcyclopropyl)benzene]
